Test results reported in patent publication US6423737B1, “Benzamidoxime prodrugs as antipneumocystic agents” (The University of North Carolina at Chapel Hill, priority 1995, dated 2002).
“Also recorded” adds a separate entry of the source.

Key:
[1] = system: Pneumocystis carinii; experiment: Anti-P. carinii activity in immunosuppressed rat model (lung cyst counts); format: in vivo, Sprague-Dawley rats; settings: for anti-P. carinii activity when given orally (in words): Formula I series, orally by gavage once daily for 14 days; for % saline, ORAL DOSING: oral by gavage daily for 14 days @33 μmol/kg body weight; for % saline, IV DOSING: tail vein injection daily for 14 days at 22 mg/kg body weight; for activity on oral administration, furan series (in words): orally by gavage
Protocol: The activity of the compounds of Formula I against P. carinii was carried out according to an established method. See Tidwell, R. R., et al., J. Protozool. […] Agents Chemother. […] Agents Chemother. […] Briefly, male Sprague-Dawley rats (barrier raised, not certified virus-free) weighing 150-200 g each, were obtained (Hilltop Laboratories, Scottsdale, Pa.). Immediately upon arrival, the animals were caged individually and begun on a low protein (8%) diet and on drinking water containing tetracycline (0.5 mg/mL) and dexamethasone (1.0 μ/mL). This regimen was continued for eight weeks. At the beginning of the seventh week, animals were divided into groups of 8 or more, and the test compounds were administered for 14 days. Saline and pentamidine-treated groups were included as controls.
Animals were sacrificed at the end of the eighth week by chloroform inhalation. The left lung was weighed, ground through a No. 60 wire mesh screen, and suspended 1:10 (wt/vol) in 10 mM β-mercaptoethanol-Hanks' balanced salts solution (HBSS) without cations. Slides were prepared by spotting 5 μL of lung homogenate diluted 1:10 in HBSS with β-mercaptoethanol and allowed to air dry. The slides were stained with cresyl violet, and the cysts were counted by a blinded protocol. The number of cysts per gram of original lung tissue was calculated, and the groups were reported as the percentages of saline-treated controls.
The anti-P. carinii value for each compound is expressed as the percent of cysts in the treatment group as compared to the saline control group. Values are also compared to a positive control group consisting of animals treated intravenously with pentamidine.

[2] = In vitro metabolism by rat tissue homogenate 9000×g supernatants (HPLC); format: in vitro ADME; settings: 167 μM substrate plus cofactor solution, 37EC, 10 minutes; FIG. 1
Protocol: In vitro metabolism of diamidoximes 1, 3, 5, and 7 by rat liver homogenate 9000×g supernatants, post-mitochondrial 105,000×g supernatants or microsomal fractions were performed as previously described in B. J. Berger et al., Antimicrob. Agents and Chemotherapy 36, 1825-1831 (1992); B. J. Berger et al., J. Pharmacol. Experimental Therapeutics 256, 883-89 (1991). Briefly, adult male Sprague-Dawley rats, barrier raised, (Hilltop Laboratories, Scottsdale, Pa.) animals were given water and rat chow (Agway, Syracuse, N.Y.) ad libitum. The rats were euthanized by decapitation, the livers removed immediately, rinsed with 50 mM potassium phosphate buffer, pH 7.4, and placed on ice. All subsequent steps were performed at 4EC. The livers were minced, homogenized, and 9000×g supernatants, 105,000×g or 105,000×g microsomal pellets prepared. Each fraction was assayed for protein content as described in M. M. Bradford, Anal. Biochem. 72, 248-254 (1976) and stored at −80EC. Fractions from the rat kidneys, lungs, hearts and brains were prepared similarly.
Reaction mixtures consisted of 1.5 mL 50 mM potassium phosphate buffer, pH 7.4, 0.5 mL cofactor solution (2 mg/mL NADPH, 1.6 mg/mL MgCl2, 1.04 mg/mL glucose-6-phosphate and 2 units/mL glucose-6-phosphate dehydrogenase in 50 mM potassium phosphate buffer pH 7.4), 0.5 mL tissue homogenate and 0.5 mL of the appropriate diamidoxime substrate at a concentration of 167 μM. Reactions were started by adding substrate, then mixtures were incubated at 37EC in a shaking water bath for times shown in the figures. Reactions were terminated by extracting over C18 cartridges and assaying as described below.
(§1) Samples were extracted using solid phase extraction and assayed using high performance liquid chromatography (HPLC) by methods similar to those previously described in Berger et al. (1992) and Berger et al., (1991), supra. Briefly, samples spiked with 2,5-bis[4-(N-isopropylamidino)phenyl]furan dihydrochloride as the internal standard (IS) were extracted over activated C18 Bond Elut cartridges (Varian Associates, Sunnydale, Calif.), washed with water, 100% acetonitrile, then eluted with 75% acetonitrile/25% water containing 15 mm triethylamine and 35 mM acetic acid. The diamidoxime substrates elute in the 100% acetonitrile phase, while mono-amidine and diamidine products elute in the acetonitrile/water mixture containing triethylamine and acetic acid. Elutes were evaporated to dryness at 40EC under a gentle stream of nitrogen and resuspended in HPLC grade water.
Compounds were resolved using a Hewlett-Packard (Avondale, Pa.) model 1090 HPLC equipped with a HP 1050 variable wavelength detector set at 265 nm, a 4.6×250 mm Zorbax RX diisopropyl C8 column (Mac-Mod, Chadd's Ford, PA) maintained at 40EC and a Vectra 486/66U computer with HP Chemstations software. The mobile phase consisted of 15 mM triethylamine and 35 mM acetic acid in HPLC grade water for pump A, and 15 mM triethylamine and 35 mM acetic acid in 75% acetonitrile in water for pump B. The solvent flow rate was 1.5 mL/min, and the solvent gradient ran from 0% B to 25% B at 22 min, to 40% B at 25 min, then 90% B at 35 min. All solvents and reagents used for the assays were HPLC grade. Quantities of metabolites formed were calculated, using peak area rations of authentic standard, from standard addition curves generated by spiking standards into tissue homogenates or tissue culture medium.

[3] = system: BRL 3A hepatocytes; experiment: Metabolism in intact cultured cells (HPLC of culture supernatants); format: in vitro ADME; settings: 10 μM substrate, 24 hours, 37EC; extracellular medium assayed; FIG. 4
Protocol: Metabolic experiments with intact cultured cells were performed using the BRL 3A hepatocyte line, obtained from the UNC-Chapel Hill Lineberger Tissue Culture Facility. Cells were routinely cultured in Costar (Cambridge, Mass.) 25 cm^2 of tissue culture flasks at 37EC under moist 5% CO2 and 95% air in Ham's F-12 medium (Gibco, Gaithersburg, Md.) containing 5% fetal bovine serum (HyClone Laboratories Inc., Logan, Utah). Confluent cultures were treated with 0.25% trypsin solution (Sigma Chemical Co., ST. Louis Mo.), then approximately 2×10^5 cells/well subcultured into Costar 6-well tissue culture chambers and the cells allowed to grow to confluency. Ten mL fresh medium was added to each culture well and incubations were started by adding 100 μL amidoxime solution (prepared in sterile water) to a final concentration of 10 μM. Cell cultures were incubated at 37EC under moist 5% CO2 and 95% air for 24 hours, then aliquots of culture supernatants extracted and assayed for metabolites as described below. Similar metabolic experiments were performed with cultured J774 A.1 mouse monocyte-macrophage cells cultured in DMEM F-12 medium containing 10% fetal bovine serum and H9c2 rat heart myoblast cells cultured in DMEM H medium containing 10% fetal bovine serum.
as §1
Compounds were resolved using a Hewlett-Packard (Avondale, Pa.) model 1090 HPLC equipped with a HP 1050 variable wavelength detector set at 265 nm, a 4.6×250 mm Zorbax RX diisopropyl C8 column (Mac-Mod, Chadd's Ford, PA) maintained at 40EC and a Vectra 486/66U computer with HP Chemstations software. […] Quantities of metabolites formed were calculated, using peak area rations of authentic standard, from standard addition curves generated by spiking standards into tissue homogenates or tissue culture medium.

[4] = Subjective scale of toxicity and tolerance during treatment in the immunosuppressed rat model; settings: for Toxicity, IV DOSING / Toxicity, ORAL DOSING: subjective scale; for acute toxicity generally noted for diamidines, on intravenous administration: immunosuppressed rat model
Source text: ^b subjective scale of toxicity. […] In general, the larger the value the more severe the toxicity, with values greater than 2 indicating the death of some animals

[5] = Acute toxicity of single doses in normal rats; format: in vivo; settings: normal rats; for time after injection to recovery / persistence of symptoms: single IV 20 μmol/kg; for relative acute toxicity among the diamidines: single IV injection
[6] = system: Pneumocystis carinii; settings: cited from earlier work; for mean histological score, IV DOSING: tail vein injection daily for 14 days @ 10 mg/kg, scores range from 0.5 (low infection) to 4.0; for intravenous activity of diamidines (in words): previously evaluated by a different score method
[7] = 22.0 μmol/kg/day, values greater than 2 indicate death of some animals

NC(=NO)c1ccc(OCCCCOc2ccc(C(N)=NO)cc2)cc1.O=C(O)/C=C\C(=O)O.O=C(O)/C=C\C(=O)O [Compound 3, 1,4-bis(4′-(N-hydroxyamidino)phenoxy)butanedi-maleinate]
anti-P. carinii activity / mean cyst counts when given intravenously (in words) ([1]; Formula I amidoximes, intravenous): significantly reduced compared to saline controls
anti-P. carinii activity when given orally (in words) [1]: most active
% saline, ORAL DOSING ([1]; Table 2): 1.43 % saline
% saline, IV DOSING ([1]; Table 2): 0.12 % saline
metabolism by rat liver homogenate 9000×g supernatants [2]: metabolized similarly
metabolism in intact BRL 3A hepatocytes [3]: metabolized predominantly to the corresponding diamidine

NC(=NO)c1ccc(-c2ccc(-c3ccc(C(N)=NO)cc3)o2)cc1 [Compound 10, 2,5-bis-[4-amidinophenyl]furanbis-amidoxime]
activity on oral administration, furan series (in words) ([1]; immunosuppressed rat model): effective
drug uptake on oral dosage (suggested by the values for the cyst counts) ([1]; rat, in vivo, po): superior to that of the parent compound 9
Toxicity, IV DOSING ([4]; 0.3 μmol/kg/day): 0
Toxicity, IV DOSING ([4]; 2.7 μmol/kg/day): 0
Toxicity, IV DOSING ([4]; 5.5 μmol/kg/day): +1
Toxicity, IV DOSING ([4]; 11.0 μmol/kg/day): +1
Toxicity, IV DOSING [4, 7]: +1
inflammation and necrosis at the injection site ([4]; intravenous, 5.5 μmol/day): considerable inflammation and necrosis of the tail vein at the injection site
acute toxicity generally noted for diamidines, on intravenous administration ([4]; intravenous): absent
Toxicity, ORAL DOSING ([4]; 5.5 μmol/kg/day): 0
Toxicity, ORAL DOSING ([4]; 11.0 μmol/kg/day): 0
Toxicity, ORAL DOSING ([4]; 33.0 μmol/kg/day): 0

CCON=C(N)c1ccc(-c2ccc(-c3ccc(C(N)=NOCC)cc3)o2)cc1 [Compound 12, 2,5-bis-[4-amidinophenyl]furanbis-O-ethylamidoxime]
Toxicity, IV DOSING [4, 7]: +1
Toxicity, ORAL DOSING ([4]; 33.0 μmol/kg/day): 0

CON=C(N)c1ccc(-c2ccc(-c3ccc(C(N)=NOC)cc3)o2)cc1 [Compound 11, 2,5-bis-[4-amidinophenyl]furanbis-O-methylamidoxime]
activity on oral administration, furan series (in words) ([1]; immunosuppressed rat model): effective; also recorded: more effective than the bis-amidoxime 10
drug uptake on oral dosage (suggested by the values for the cyst counts) ([1]; oral dosage, immunosuppressed rat model): superior to that of the parent compound 9
Toxicity, IV DOSING [4, 7]: 0
tolerance at the injection site ([4]; intravenous, 22.0 μmol/kg/day): well-tolerated
acute toxicity generally noted for diamidines, on intravenous administration ([4]; intravenous): absent
Toxicity, ORAL DOSING ([4]; 5.5 μmol/kg/day): 0
Toxicity, ORAL DOSING ([4]; 11.0 μmol/kg/day): 0
Toxicity, ORAL DOSING ([4]; 22.0 μmol/kg/day): 0
Toxicity, ORAL DOSING ([4]; 33.0 μmol/kg/day): 0

N=C(N)c1ccc(OCCCCCOc2ccc(C(=N)N)cc2)cc1 [Compound 2, 1,5-bis(4′-amidinophenoxy)pentane, reference compound]
% saline, ORAL DOSING ([1]; Table 2): 133.09 % saline
% saline, IV DOSING ([1]; Table 2): 0.87 % saline
% saline, ORAL DOSING ([1]; Table 3): 133.09 % saline
observed acute toxicity after single intravenous injection ([5]; 20 μmol/kg): appeared hypotensive, with rapid paling of extremities, hypoactivity and dyspnea, which progressed to slight cyanosis of extremities
observed acute toxicity after single intravenous injection ([5]; 40 μmol/kg): immediate sever hind limb contractions, increased salivation, dyspnea, initial paling of extremities which progressed to marked cyanosis and profound hypoactivity
time after injection to recovery / persistence of symptoms [5]: ≤ 5 min
mean histological score, IV DOSING [6]: 1.1

N=C(N)c1ccc(OCCCCOc2ccc(C(=N)N)cc2)cc1 [Compound 4, 1,4-bis(4′-amidinophenoxy)butane, reference compound]
anti-P. carinii activity when given orally (in words) [1]: reduced or no anti-P. carinii activity
% saline, ORAL DOSING ([1]; Table 3): 46.03 % saline
intravenous activity of diamidines (in words) [6]: previously shown to have intravenous activity
mean histological score, IV DOSING [6]: 0.5

COc1cc(C(=N)N)ccc1OCCCOc1ccc(C(=N)N)cc1OC [Compound 8, 1,3-bis(2′-methoxy-4′-amidinophenoxy)propane, reference compound]
anti-P. carinii activity when given orally (in words) [1]: significant oral activity
observed acute toxicity after single intravenous injection ([5]; 10 μmol/kg): perceptible hypoactivity
time after injection to recovery / persistence of symptoms [5]: > 15 min
relative acute toxicity among the diamidines [5]: even more acutely toxic than the other two diamidines tested
intravenous activity of diamidines (in words) [6]: previously shown to have intravenous activity

N=C(N)c1ccc(OCCCOc2ccc(C(=N)N)cc2)cc1 [Compound 6, 1,3-bis(4′-amidinophenoxy)propane]
anti-P. carinii activity when given orally (in words) [1]: reduced or no anti-P. carinii activity
relative acute toxicity among the diamidines [5]: less acutely toxic than pentamidine
intravenous activity of diamidines (in words) [6]: previously shown to have intravenous activity
mean histological score, IV DOSING [6]: 0.9
